In patent publication US12441765B2, “Peptides and medical uses thereof” (Anbition S.R.L., priority 2018, dated 2025):
Where two headings read alike, the source gives them in different places.

Experiments:
[1] = Serum protease stability in 10% fetal calf serum (RP-HPLC); type: in vitro ADME; settings: 10% FCS
Description: The stability of the peptide iVR1-Cys in 10% serum (fetal calf serum, FCS) in a 50 mM phosphate buffer solution, pH 7.3, at 168 h was determined as described by Ponticelli et al., relying on a method based on RP-HPLC chromatography, described therein [Ponticelli et al., J Biol Chem. 2008 Dec. 5; 283 (49): 34250-9].
The reference curve was constructed by dissolving the compound in DMSO at increasing concentrations of between 0.1 μmol/L and 1000 μmol/L in order to have complete dissolution. The concentration of the molecule left in contact with 10% FCS at the initial concentration of 10 μmol/L was then determined by drawing 3 aliquots at time t=0, then every hour in the first 12 hours and then at 24, 72, 120, and 168 h. The aliquots were diluted 1:1 with acetic acid 0.1 M in order to detach any peptide bound to the albumin, centrifuged to remove any precipitated materials and analyzed by RP-HPLC under the conditions reported in Ponticelli et al. The amount of residual peptide detected in the aliquots, expressed as a percentage relative to the initial amount, was plotted as a function of time. The results are shown in Table VII as the mean of the three determinations±the standard deviation (SD).

PIGF/VEGFR-1 interaction = target: T1, PIGF/VEGFR-1 interaction (Homo sapiens, UniProt P17948); test: ELISA competition assay of PIGF binding to VEGFR-1; settings: for binding % (PIGF/VEGFR-1 interaction): residual binding
T1 construct: the form consisting of the seven extracellular domains of the receptor fused to the Fc domain of human lgG; purchased R&D Systems 321-FL (receptor); 264-PG (PlGF)
Description: The assay to test the binding of PIGF or VEGF-A with the VEGFR-1 receptor is based on the ELISA method [Ponticelli et al., JBC. 2008 Dec. 5; 283 (49): 34250-9] and was performed using reagents acquired from R&D Systems.
The human recombinant receptor VEGFR-1, in particular the form consisting of the seven extracellular domains of the receptor fused to the Fc domain of human lgG (R&D Systems, cat N° 321-FL), was made to adhere in the wells of 96-well microplates at a concentration of 0.5 μg/ml in PBS pH 7.5 (100 μl/well) for 16 hours at room temperature (RT).
After the non-specific binding sites had been blocked in the wells using a buffer solution consisting of PBS pH 7.5 containing 3% BSA, 5 ng/ml of recombinant PIGF (R&D Systems, cat N° 264-PG), or 5 ng/ml of recombinant VEGF-A (R&D Systems, cat N° 293-VE) of human origin in PBET (PBS pH 7.5, BSA 0.1%, EDTA 5 mM, Tween 0.004%) were added to the wells with the adhered receptor.
Simultaneously with the ligands, i.e., PIGF or VEGF-A, graduated doses of iVR1, iVR1-Cys or a control peptide (PC-[(S-Ser)-(S-Ala)-(S-Cha) tripeptide with a tetrameric structure identical to the structure of the iVR1 peptides]) were added at concentrations comprised between 780 and 50000 nM. The binding reaction was conducted for one hour at 37° C., followed by one hour at room temperature.
(§1) At the end of the binding and/or competition step, anti-human-PIGF biotinylated polyclonal antibodies (R&D Systems, cat No. BAF264) or anti-human-VEGF-A (R&D Systems, cat No. BAF293) were added to the wells at the concentration of 300 ng/ml in PBET. After one hour of incubation at 37° C. followed by one hour at room temperature, an HRP-conjugated avidin-streptavidin system (Vectastain elite ABC kit) and a substrate for HRP (o-phenylenediamine-Sigma, cat No. P1526) were added to the wells. Quantization was performed by determining the absorbance at 490 nm.
Any inhibitory activity of the peptides was expressed in terms of % of residual binding, comparing the data obtained for the binding of PIGF or VEGF-A to the receptors in the presence of the tetrameric peptides with those in the absence of the same. iVR1 represented the positive control of the inhibition of the PIGF/VEGFR-1 or VEGF-A/VEGFR-1 interaction.

[2] = target: T2, VEGF-A/VEGFR-1 interaction (Homo sapiens, UniProt P17948); test: ELISA competition assay of VEGF-A binding to VEGFR-1; settings: for binding % (VEGF-A/VEGFR-1 interaction): residual binding
T2 construct: the form consisting of the seven extracellular domains of the receptor fused to the Fc domain of human lgG; purchased R&D Systems 321-FL (receptor); 293-VE (VEGF-A)
Description: as §1, with “The binding reaction was conducted for one hour at 37° C., followed by one hour at room temperature. At” for “At”, “nm. Any inhibitory activity of the peptides was expressed in terms of % of residual binding, comparing the data obtained for the binding of PIGF or VEGF-A to the receptors in the presence of the tetrameric peptides with those in the absence of the same. iVR1 represented the positive control of the inhibition of the PIGF/VEGFR-1 or VEGF-A/VEGFR-1 interaction.” for “nm.”

VEGFR1 = VEGFR1 (Homo sapiens, UniProt P17948); settings: cited from earlier work
VEGFR1, sequence (P17948 27-1338): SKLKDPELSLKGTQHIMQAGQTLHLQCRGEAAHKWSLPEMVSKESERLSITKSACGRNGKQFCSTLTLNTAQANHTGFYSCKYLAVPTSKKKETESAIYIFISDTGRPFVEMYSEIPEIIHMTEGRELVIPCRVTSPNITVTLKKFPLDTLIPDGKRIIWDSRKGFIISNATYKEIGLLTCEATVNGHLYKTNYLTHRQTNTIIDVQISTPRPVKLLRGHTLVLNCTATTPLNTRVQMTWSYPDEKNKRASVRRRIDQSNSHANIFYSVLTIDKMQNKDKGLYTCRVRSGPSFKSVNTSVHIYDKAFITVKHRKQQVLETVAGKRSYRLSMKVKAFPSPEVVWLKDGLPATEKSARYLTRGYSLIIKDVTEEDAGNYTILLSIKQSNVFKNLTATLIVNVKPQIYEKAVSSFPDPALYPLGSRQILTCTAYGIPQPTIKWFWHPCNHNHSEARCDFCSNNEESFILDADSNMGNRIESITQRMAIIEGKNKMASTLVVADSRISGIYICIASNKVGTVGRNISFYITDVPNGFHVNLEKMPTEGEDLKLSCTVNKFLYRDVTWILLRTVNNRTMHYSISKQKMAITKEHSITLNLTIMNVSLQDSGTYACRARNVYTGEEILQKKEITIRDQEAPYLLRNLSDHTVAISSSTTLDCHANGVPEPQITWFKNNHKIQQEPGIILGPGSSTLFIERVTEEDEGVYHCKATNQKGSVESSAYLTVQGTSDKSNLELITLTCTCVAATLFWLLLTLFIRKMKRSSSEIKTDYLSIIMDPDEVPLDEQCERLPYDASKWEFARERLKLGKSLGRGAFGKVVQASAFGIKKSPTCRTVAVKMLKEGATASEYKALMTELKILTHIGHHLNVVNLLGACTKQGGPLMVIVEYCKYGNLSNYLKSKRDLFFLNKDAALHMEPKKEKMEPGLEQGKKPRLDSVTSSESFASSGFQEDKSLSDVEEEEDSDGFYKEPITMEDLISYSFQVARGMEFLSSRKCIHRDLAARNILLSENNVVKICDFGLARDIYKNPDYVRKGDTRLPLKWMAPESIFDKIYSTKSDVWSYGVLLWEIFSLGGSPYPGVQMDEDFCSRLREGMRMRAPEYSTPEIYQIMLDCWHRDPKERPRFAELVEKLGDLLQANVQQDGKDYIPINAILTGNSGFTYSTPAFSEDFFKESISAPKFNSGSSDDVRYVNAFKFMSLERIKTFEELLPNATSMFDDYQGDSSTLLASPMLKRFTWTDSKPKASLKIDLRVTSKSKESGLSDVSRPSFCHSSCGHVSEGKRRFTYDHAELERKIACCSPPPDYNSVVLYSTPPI

T1 sequence (P17948 27-758 limits assumed): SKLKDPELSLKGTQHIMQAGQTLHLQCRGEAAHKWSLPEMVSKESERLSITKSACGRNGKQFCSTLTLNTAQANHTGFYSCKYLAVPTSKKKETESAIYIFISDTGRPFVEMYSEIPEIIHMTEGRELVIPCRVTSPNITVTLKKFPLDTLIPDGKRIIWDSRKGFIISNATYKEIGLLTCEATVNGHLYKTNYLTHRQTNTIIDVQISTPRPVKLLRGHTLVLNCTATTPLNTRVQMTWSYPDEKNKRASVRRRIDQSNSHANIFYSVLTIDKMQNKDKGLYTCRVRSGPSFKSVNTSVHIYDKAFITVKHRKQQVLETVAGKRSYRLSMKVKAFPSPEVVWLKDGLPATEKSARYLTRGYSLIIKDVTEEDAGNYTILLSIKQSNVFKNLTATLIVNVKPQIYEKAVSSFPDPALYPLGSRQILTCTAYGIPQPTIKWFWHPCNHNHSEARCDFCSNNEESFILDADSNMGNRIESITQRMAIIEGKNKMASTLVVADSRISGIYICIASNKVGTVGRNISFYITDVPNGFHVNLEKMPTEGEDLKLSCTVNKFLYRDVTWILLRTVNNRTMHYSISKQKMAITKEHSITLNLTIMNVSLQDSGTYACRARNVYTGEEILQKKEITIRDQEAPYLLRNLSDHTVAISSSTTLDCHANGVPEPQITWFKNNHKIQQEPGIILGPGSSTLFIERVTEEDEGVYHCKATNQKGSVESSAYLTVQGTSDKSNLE
T2 sequence (P17948 27-758 limits assumed): as above

## N[C@H](CCC(=O)O)C(=O)N[C@@H](CSCc1ccccc1)C(=O)N[C@@H](CC1CCCCC1)C(=O)NCCCC[C@H](NC(=O)[C@H](CC1CCCCC1)NC(=O)[C@H](CSCc1ccccc1)NC(=O)[C@H](N)CCC(=O)O)C(=O)NCCCC[C@H](NC(=O)[C@H](CCCCNC(=O)[C@H](CC1CCCCC1)NC(=O)[C@H](CSCc1ccccc1)NC(=O)[C@H](N)CCC(=O)O)NC(=O)[C@H](CC1CCCCC1)NC(=O)[C@H](CSCc1ccccc1)NC(=O)[C@H](N)CCC(=O)O)C(=O)N[C@H](CS)C(=O)O [iVR1-Cys]
[1]; 0 h, 50 mM phosphate buffer pH 7.3, initial 10 μmol/L
  % residual peptide ± SD: 101 ± 4%
[1]; calf (bovine), 10% fetal calf serum, 1 h, pH 7.3, read-out: % residual peptide ± SD
  remaining at 1 h, 10 μmol/L: 100 ± 11%
[1]; calf (bovine), 10% fetal calf serum, 2 h, pH 7.3, read-out: % residual peptide ± SD
  remaining at 2 h, 10 μmol/L: 99 ± 7%
[1]; calf (bovine), 10% fetal calf serum, 3 h, pH 7.3, read-out: % residual peptide ± SD
  remaining at 3 h, 10 μmol/L: 98 ± 5%
[1]; calf (bovine), 10% fetal calf serum, 4 h, pH 7.3, read-out: % residual peptide ± SD
  remaining at 4 h, 10 μmol/L: 97 ± 4%
[1]; calf (bovine), 10% fetal calf serum, 5 h, pH 7.3, read-out: % residual peptide ± SD
  remaining at 5 h, 10 μmol/L: 96 ± 5%
[1]; calf (bovine), 10% fetal calf serum, 6 h, pH 7.3, read-out: % residual peptide ± SD
  remaining at 6 h, 10 μmol/L: 99 ± 6%
[1]; calf (bovine), 10% fetal calf serum, 7 h, pH 7.3, read-out: % residual peptide ± SD
  remaining at 7 h, 10 μmol/L: 95 ± 8%
[1]; calf (bovine), 10% fetal calf serum, 8 h, pH 7.3, read-out: % residual peptide ± SD
  remaining at 8 h, 10 μmol/L: 96 ± 5%
[1]; calf (bovine), 10% fetal calf serum, 9 h, pH 7.3, read-out: % residual peptide ± SD
  remaining at 9 h, 10 μmol/L: 95 ± 6%
[1]; calf (bovine), 10% fetal calf serum, 10 h, pH 7.3, read-out: % residual peptide ± SD
  remaining at 10 h, 10 μmol/L: 94 ± 10%
[1]; calf (bovine), 10% fetal calf serum, 11 h, pH 7.3, read-out: % residual peptide ± SD
  remaining at 11 h, 10 μmol/L: 94 ± 8%
[1]; calf (bovine), 10% fetal calf serum, 12 h, pH 7.3, read-out: % residual peptide ± SD
  remaining at 12 h, 10 μmol/L: 93 ± 4%
[1]; calf (bovine), 10% fetal calf serum, 24 h, pH 7.3, read-out: % residual peptide ± SD
  remaining at 24 h, 10 μmol/L: 93 ± 6%
[1]; calf (bovine), 10% fetal calf serum, 72 h, pH 7.3, read-out: % residual peptide ± SD
  remaining at 72 h, 10 μmol/L: 92 ± 7%
[1]; calf (bovine), 10% fetal calf serum, 120 h, pH 7.3, read-out: % residual peptide ± SD
  remaining at 120 h, 10 μmol/L: 91 ± 5%
[1]; calf (bovine), 10% fetal calf serum, 168 h, pH 7.3, read-out: % residual peptide ± SD
  remaining at 168 h, 10 μmol/L: 92 ± 8%

## N[C@H](CCC(=O)O)C(=O)N[C@@H](CSCc1ccccc1)C(=O)N[C@@H](CC1CCCCC1)C(=O)NCCCC[C@H](NC(=O)[C@H](CC1CCCCC1)NC(=O)[C@H](CSCc1ccccc1)NC(=O)[C@H](N)CCC(=O)O)C(=O)NCCCC[C@H](NC(=O)[C@H](CCCCNC(=O)[C@H](CC1CCCCC1)NC(=O)[C@H](CSCc1ccccc1)NC(=O)[C@H](N)CCC(=O)O)NC(=O)[C@H](CC1CCCCC1)NC(=O)[C@H](CSCc1ccccc1)NC(=O)[C@H](N)CCC(=O)O)C(=O)NCC(=O)O [iVR1]
PIGF/VEGFR-1 interaction; peptide 780 nM
  binding % (PIGF/VEGFR-1 interaction): 99.36%
PIGF/VEGFR-1 interaction; peptide 1560 nM
  binding % (PIGF/VEGFR-1 interaction): 101.32%
PIGF/VEGFR-1 interaction; peptide 3125 nM
  binding % (PIGF/VEGFR-1 interaction): 96.10%
PIGF/VEGFR-1 interaction; peptide 6250 nM
  binding % (PIGF/VEGFR-1 interaction): 68.49%
PIGF/VEGFR-1 interaction; peptide 12500 nM
  binding % (PIGF/VEGFR-1 interaction): 44.57%
PIGF/VEGFR-1 interaction; peptide 25000 nM
  binding % (PIGF/VEGFR-1 interaction): 36.02%
PIGF/VEGFR-1 interaction; peptide 50000 nM
  binding % (PIGF/VEGFR-1 interaction): 26.26%
PIGF/VEGFR-1 interaction; read-out: IC50 of inhibition of the interaction of PIGF with VEGFR-1
  IC50: ~10 µM
[2]; peptide 780 nM
  binding % (VEGF-A/VEGFR-1 interaction): 98.36%
[2]; peptide 1560 nM
  binding % (VEGF-A/VEGFR-1 interaction): 96.21%
[2]; peptide 3125 nM
  binding % (VEGF-A/VEGFR-1 interaction): 93.93%
[2]; peptide 6250 nM
  binding % (VEGF-A/VEGFR-1 interaction): 66.00%
[2]; peptide 12500 nM
  binding % (VEGF-A/VEGFR-1 interaction): 37.02%
[2]; peptide 25000 nM
  binding % (VEGF-A/VEGFR-1 interaction): 21.45%
[2]; peptide 50000 nM
  binding % (VEGF-A/VEGFR-1 interaction): 8.60%
[2]; read-out: IC50 for VEGF-A/VEGFR-1 inhibition
  IC50: ~10 µM
VEGFR1; in vitro, reported by Ponticelli et al., read-out: IC50 of inhibition of the interaction of PIGF, VEGF-A and VEGF-B with VEGFR1
  IC50: ~10 µM
VEGFR1; reported in Ponticelli et al., read-out: affinity towards VEGFR1 (expressed as IC50)
  IC50: ≥ 10 µM
